Laboratory results as given in ChEMBL document CHEMBL1129807, “Design and synthesis of 3,5-dialkylamino substituted 8H,10H-3(R),5(R),15b(S)-2,3,6,7-tetrahydro-1,5,3-dioxazepino[3,2-c]indolo[3,2-g]pteridine-7-ones” (Bioorg Med Chem Lett, 1997).

Test system: L1210
Test: The compound was tested in vitro for growth inhibitory activity against murine leukemia L1210 cells
Format: functional, cell-based
Conditions: Mus musculus

| Compound | IC50 |
| --- | --- |
| CCN(CC)C[C@H]1CO[C@H]2c3nc4c5ccccc5n(C)c4nc3N(C)C(=O)N2[C@@H](CN(CC)CC)O1 | 6 µM |
| Cc1c2ccncc2c(C)c2c1[nH]c1ccccc12 [ELLIPTECINE] | 0.5 µM |
| CN(C)CCCN(C)C[C@H]1CO[C@H]2c3nc4c5ccccc5n(C)c4nc3N(C)C(=O)N2[C@@H](CN(C)CCCN(C)C)O1 | 24 µM |

More lines, now with the values ahead:

| IC50 | Compound |
| --- | --- |
| 20 µM | CN1CCN(C[C@H]2CO[C@H]3c4nc5c6ccccc6n(C)c5nc4N(C)C(=O)N3[C@@H](CN3CCN(C)CC3)O2)CC1 |
| 17 µM | CCN(CC)C[C@H]1CO[C@H]2c3nc4c5ccccc5n(C)c4nc3NC(=O)N2[C@@H](CN(CC)CC)O1 |
| 4 µM | CN1CCC(N(C)C[C@H]2CO[C@H]3c4nc5c6ccccc6n(C)c5nc4N(C)C(=O)N3[C@@H](CN(C)C3CCN(C)CC3)O2)CC1 |
